“And” between values parts separate entries of the source, which are not always exact repeats. Equal values may be shown once.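 Method: 48-hour compound exposure of cells in 96-well plates, five concentrations, linear interpolation of endpoints. GI50 is the concentration that inhibits growth by half. Definition used: TGI = concentration required for complete inhibition of growth.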

Some test systems named below: HCC-2998 colon; COLO 205 colon; RXF 393 renal; SF-539 CNS; SF-268 CNS; HL-60(TB) leukemia; CAKI-1 renal; BT-549 breast; CCRF-CEM leukemia; NCI-H460 lung.
What all share (assay): inhibition of tumour cell growth, NCI panel, 48 h

Turning to `CCCNC1=C2CC(C)CC(OC)[C@@H](O)[C@H](C)/C=C(\C)C(OC(N)=O)C(OC)/C=C\C=C(/C)C(=O)NC(=CC1=O)C2=O` (stereo partly drawn), the GI50 with HCC-2998 colon is 0.359 µM; in the test on COLO 205 colon, 0.0141 µM; in the test with RXF 393 renal, 13.8 µM; in the test with SF-539 CNS it was 0.402 µM; in the test on SF-268 CNS it was 0.134 µM; in the test with CCRF-CEM leukemia, 0.309 µM. The GI50 in the test with NCI-H460 lung was 0.0541 µM. Besides, the TGI in the test on HCC-2998 colon is 3.23 µM and 13.1 µM; in the test with COLO 205 colon, 12.7 µM; with RXF 393 renal, 48.7 µM; in the test with SF-539 CNS it was 18.3 µM; with SF-268 CNS it was 27.1 µM; in the test on HL-60(TB) leukemia, 2.34 µM and 0.547 µM. Also, the TGI was over 100 µM with CAKI-1 renal, 42.1 µM in the test with BT-549 breast, 3.13 µM in the test on CCRF-CEM leukemia and 29.4 µM in the test on NCI-H460 lung.
On to `NC(=O)C(c1ccccc1)N1OC2C(=O)N(c3ccccc3)C(=O)C2C1c1c2ccccc2c(Cl)c2ccccc12` (stereo not drawn), for which the TGI with COLO 205 colon, in the test on RXF 393 renal, with SF-539 CNS, with SF-268 CNS, in the test on HL-60(TB) leukemia and in the test on CAKI-1 renal was over 100 µM throughout. The TGI with BT-549 breast and in the test with CCRF-CEM leukemia was over 100 µM throughout.
Turning to `O=C(O)CN(CC(=O)O)C1CCCCC1N(CC(=O)O)CC(=O)NCCN=C=S` (stereo not drawn), the TGI in the test with HCC-2998 colon, with RXF 393 renal, in the test with SF-539 CNS, in the test with SF-268 CNS, with HL-60(TB) leukemia and with CAKI-1 renal was over 100 µM each time. Moreover, the TGI with BT-549 breast, in the test on CCRF-CEM leukemia and with NCI-H460 lung was over 100 µM in each case.
Consider `COc1cc(/C=C/C(=N\NS(=O)(=O)c2ccc(C)cc2)c2sc(NNC(C)=O)nc2C)ccc1O`, for which the TGI with HCC-2998 colon, with COLO 205 colon, in the test on RXF 393 renal, with SF-539 CNS, with SF-268 CNS and in the test on HL-60(TB) leukemia was over 100 µM each time. Further, the TGI in the test with CAKI-1 renal, with BT-549 breast, in the test with CCRF-CEM leukemia and in the test on NCI-H460 lung was over 100 µM in each case.
For `C=C1c2nc3ccccc3n2C=C(c2ccccc2)N1c1ccc([N+](=O)[O-])cc1`, the TGI in the test with HCC-2998 colon is over 23.2 µM; in the test on COLO 205 colon, 48.4 µM; with RXF 393 renal, 16 µM; with SF-539 CNS, 3.04 µM; with SF-268 CNS, 49.1 µM; with HL-60(TB) leukemia it was over 88.1 µM. In addition, the TGI in the test with CAKI-1 renal is 24 µM; in the test with BT-549 breast it was 46.4 µM; in the test with CCRF-CEM leukemia it was over 81.3 µM; with NCI-H460 lung, 6.6 µM.
As to `O=C1OCC(O)=C1C(c1ccc(Cl)cc1)c1cc2c(cc1O)OCO2` (stereo not drawn), the TGI in the test on HCC-2998 colon, in the test with COLO 205 colon, with RXF 393 renal, with SF-539 CNS, with SF-268 CNS and in the test on HL-60(TB) leukemia was over 100 µM throughout. Further, the TGI in the test with CAKI-1 renal, in the test with BT-549 breast, in the test with CCRF-CEM leukemia and in the test on NCI-H460 lung was over 100 µM in each case.
Regarding `C=C(Br)C(C)(Cl)CCC(Br)C(C)(C)Cl` (stereo not drawn), the TGI with HCC-2998 colon is over 100 µM; in the test on COLO 205 colon, 64.6 µM; with RXF 393 renal, 65.1 µM; with SF-539 CNS, over 100 µM; in the test on SF-268 CNS, over 100 µM; with HL-60(TB) leukemia, 80.6 µM. The TGI with CAKI-1 renal is over 100 µM; in the test with BT-549 breast, over 100 µM; with CCRF-CEM leukemia, 44.5 µM; with NCI-H460 lung, over 100 µM.
For the compound `COc1ccc(CNc2nc(NCc3ccc(OC)c(OC)c3)nc(NC3CCCCC3)n2)cc1`, the TGI in the test with COLO 205 colon is 21 µM; with RXF 393 renal, 6.22 µM; in the test on SF-539 CNS it was 8.46 µM; in the test with HL-60(TB) leukemia, over 100 µM; in the test on CAKI-1 renal, over 100 µM; with BT-549 breast, over 100 µM. The TGI with CCRF-CEM leukemia and in the test with NCI-H460 lung was over 100 µM each time.
`O=c1[nH][nH]c(=O)n1Cc1ccccc1Cn1c(=O)[nH][nH]c1=O`: the TGI in the test on COLO 205 colon, in the test on RXF 393 renal, with SF-539 CNS, in the test with SF-268 CNS, with HL-60(TB) leukemia and in the test with CAKI-1 renal was over 100 µM throughout. The TGI with BT-549 breast, in the test on CCRF-CEM leukemia and in the test with NCI-H460 lung was over 100 µM throughout.
Consider `CCNC(=S)N/N=C/c1cc([N+](=O)[O-])ccc1O`, for which the TGI is over 100 µM with HCC-2998 colon; over 100 µM in the test on COLO 205 colon; over 100 µM in the test with RXF 393 renal; over 100 µM in the test with SF-539 CNS; over 100 µM in the test with SF-268 CNS; 40.8 µM with HL-60(TB) leukemia. In addition, the TGI in the test on BT-549 breast was over 100 µM; with CCRF-CEM leukemia, 38.6 µM; in the test with NCI-H460 lung, over 100 µM.
Consider `Clc1cc(OC2C3CC4CC(C3)CC2C4)nc(Cl)n1` (stereo not drawn), for which the TGI was found to be 4.28 µM in the test with HCC-2998 colon; 34.2 µM in the test on COLO 205 colon; 27.4 µM in the test with RXF 393 renal; 38.8 µM in the test on SF-539 CNS; 49.1 µM in the test with SF-268 CNS; 12.9 µM with HL-60(TB) leukemia. In addition, the TGI in the test on BT-549 breast came out at 52.4 µM; in the test with CCRF-CEM leukemia, 38.8 µM; in the test with NCI-H460 lung, 31.6 µM.
As for `O=C1/C(=C/c2ccc(O)cc2)CC/C1=C\c1ccc(O)cc1`, the TGI with HCC-2998 colon is over 100 µM; in the test with COLO 205 colon, over 100 µM; in the test on RXF 393 renal it was over 100 µM; in the test on SF-539 CNS, over 100 µM; in the test with SF-268 CNS, over 100 µM; in the test on HL-60(TB) leukemia, 34.5 µM. Further, the TGI in the test with CAKI-1 renal was over 100 µM; in the test on BT-549 breast it was over 100 µM; in the test with CCRF-CEM leukemia, 6.74 µM; in the test on NCI-H460 lung, over 100 µM.
On to `CC(=O)O[C@H]1C(=O)[C@]2(C)[C@@H](OC(=O)OCCC(O)CO)C[C@H]3OC[C@@]3(OC(C)=O)[C@H]2[C@H](OC(=O)c2ccccc2)[C@]2(O)C[C@H](OC(=O)[C@H](O)[C@@H](NC(=O)c3ccccc3)c3ccccc3)C(C)=C1C2(C)C` (stereo partly drawn), for which the TGI with HCC-2998 colon is 0.32 µM; in the test with RXF 393 renal, 17.9 µM; in the test with SF-539 CNS, 0.0297 µM; in the test with SF-268 CNS, 34.9 µM; with HL-60(TB) leukemia, under 0.0106 µM; in the test with CAKI-1 renal, over 42.3 µM. Moreover, the values for the TGI with BT-549 breast, with CCRF-CEM leukemia and with NCI-H460 lung were 15.9 µM, 0.0462 µM and 2.05 µM, respectively.
For `O=[N+]([O-])C(=C1NCCN1)/C(Cl)=C(\Cl)Br`, the TGI with HCC-2998 colon is over 100 µM; with COLO 205 colon, 42.6 µM; in the test on RXF 393 renal, 39.1 µM; in the test with SF-539 CNS, over 100 µM; in the test with SF-268 CNS, over 89.9 µM; in the test on HL-60(TB) leukemia it was 28.2 µM. For the same compound, the TGI in the test on CAKI-1 renal was 30 µM; in the test on BT-549 breast it was over 96 µM; with CCRF-CEM leukemia, 28.5 µM; in the test on NCI-H460 lung it was over 100 µM.
As to `COc1ccc(C(OCC2OC(n3cc(C)c(=O)[nH]c3=O)CC2n2cc(Cn3cc(I)c(=O)[nH]c3=O)nn2)(c2ccccc2)c2ccccc2)cc1` (stereo not drawn), the TGI in the test with HCC-2998 colon is over 100 µM; in the test on COLO 205 colon, over 100 µM; in the test with RXF 393 renal, over 100 µM; with SF-539 CNS it was over 100 µM; with SF-268 CNS it was over 100 µM; in the test with HL-60(TB) leukemia it was 5.55 µM. The TGI in the test on CAKI-1 renal, in the test with BT-549 breast and in the test on CCRF-CEM leukemia was over 100 µM throughout.
Turning to `CN1CCN([C@H]2C[C@H]3[C@@H]4CC=C5C[C@@H](O)CC[C@]5(C)[C@H]4CC[C@]3(C)C2=O)CC1`, the TGI in the test with HCC-2998 colon, in the test on COLO 205 colon, in the test with RXF 393 renal, with SF-539 CNS, in the test with SF-268 CNS and with HL-60(TB) leukemia was over 100 µM throughout. Also, the TGI in the test with CAKI-1 renal, in the test with BT-549 breast, in the test with CCRF-CEM leukemia and in the test on NCI-H460 lung was over 100 µM in each case.
On to `O=c1[nH]cc(N=Cc2cc(Cl)cc(Cl)c2O)c(=O)[nH]1`, for which the TGI was 95.7 µM in the test with HCC-2998 colon; 57.7 µM in the test on COLO 205 colon; over 100 µM with RXF 393 renal; 43.6 µM in the test on SF-539 CNS; 47.4 µM in the test with SF-268 CNS; 46.9 µM in the test with HL-60(TB) leukemia. For the same compound, the TGI in the test on CAKI-1 renal is 57.7 µM; in the test with BT-549 breast, 94.9 µM; in the test with CCRF-CEM leukemia it was 99 µM; in the test on NCI-H460 lung, over 100 µM.
For the compound `CNC(=O)OCC1=C(COC(=O)NC)C(C)N(c2ccc(OC)cc2)C1` (stereo not drawn), the TGI with COLO 205 colon is over 100 µM; in the test with RXF 393 renal it was over 100 µM; with SF-539 CNS, over 100 µM; with SF-268 CNS, over 100 µM; in the test on HL-60(TB) leukemia, 55.2 µM; in the test with BT-549 breast, over 100 µM. Moreover, the TGI with CCRF-CEM leukemia and with NCI-H460 lung was over 100 µM in each case.
Turning to `N#CC1=C(N)N(c2ccccc2)C(c2ccco2)C1(C#N)C#N` (stereo not drawn), the TGI in the test with HCC-2998 colon is 31.3 µM; with COLO 205 colon it was 39.2 µM; in the test on RXF 393 renal it was 37.1 µM; in the test on SF-539 CNS, 41.2 µM; with SF-268 CNS, over 100 µM; with HL-60(TB) leukemia, 53.4 µM. Besides, the values for the TGI with CAKI-1 renal, in the test with BT-549 breast and in the test on CCRF-CEM leukemia were over 100 µM, 37.4 µM and 43.9 µM, respectively.
Turning to `C(/c1ccco1)=c1/nc(-c2ccccc2)n2c1nc1ccccc12`, the TGI with COLO 205 colon is over 100 µM; in the test with RXF 393 renal, over 100 µM; in the test on SF-539 CNS, over 100 µM; in the test on SF-268 CNS, over 100 µM; in the test on HL-60(TB) leukemia, over 100 µM; in the test with CAKI-1 renal, 72.2 µM. In addition, the TGI is 94.4 µM with BT-549 breast, 46.8 µM in the test with CCRF-CEM leukemia and over 100 µM in the test with NCI-H460 lung.

For the origin of these results see PubChem BioAssay (NCI).
